Data from patent US20250000835A1, “SYNERGIES OF 1- BETA-CARYOPHYLLENE, CANNABIDIOL AND TRIBUTYRIN; 2- RETINYL PALMITATE, BETA-CARYOPHYLLENE AND CANNABIDIOL; 3- RETINYL PALMITATE AND BETA-CARYOPHYLLENE IN CONTROLING INFLAMMATION, METABOLIC HEALTH, INSULIN SENSITIVITY/ GLYCEMIC - GLUCOSE UPTAKE & MANAGEMENT, AND FATTY LIVER/ NAFLD” (FLG Sciences, LLC, priority 2022, published 2025).

Key:
Format in all cases: cell-based
PPARγ [1] = target: T1, PPARγ (Mus musculus, UniProt P37238); test: PPARγ DNA binding activity, AML-12 liver cells; conditions: vs DMSO control
T1 construct: endogenous in cells; host or cells: C2C12 myotubes (muscle cells)
T1 sequence (P37238 1-505): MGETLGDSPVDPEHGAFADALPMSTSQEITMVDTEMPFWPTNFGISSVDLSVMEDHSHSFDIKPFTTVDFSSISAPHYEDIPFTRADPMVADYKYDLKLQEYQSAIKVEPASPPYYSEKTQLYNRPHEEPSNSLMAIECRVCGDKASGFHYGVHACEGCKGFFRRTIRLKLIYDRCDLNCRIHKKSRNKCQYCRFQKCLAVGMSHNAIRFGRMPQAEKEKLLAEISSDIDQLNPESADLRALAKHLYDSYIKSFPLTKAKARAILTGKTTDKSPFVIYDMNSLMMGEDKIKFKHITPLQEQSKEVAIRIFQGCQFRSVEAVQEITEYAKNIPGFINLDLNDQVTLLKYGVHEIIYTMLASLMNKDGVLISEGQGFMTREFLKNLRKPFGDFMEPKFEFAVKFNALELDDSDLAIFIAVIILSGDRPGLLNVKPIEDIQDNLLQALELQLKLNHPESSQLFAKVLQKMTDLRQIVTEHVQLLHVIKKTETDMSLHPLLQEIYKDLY
Method: (§1) There were two different treatment experiments including: Cells treated with compounds 1-5 above for 3 hours; Cells treated with compounds 1-5 above for 12 hours with a concomitant TNF-alpha treatment (15 ng/mL); Cell treatments were performed using C2C12 myotubes (muscle cells), and AML-12 cells (liver cells).
(§2) There are also combination formulations, where the following combination formulations were tested: 6) Control or “vehicle” (DMSO only); 7) Vitamin A, or “VitA” (1.2 μM)+Beta-caryophyllene (100 ng/mL)+Tributyrin (10 μM); 8) Vitamin A, or “VitA” (1.2 μM)+Beta-caryophyllene (100 ng/mL)+CBD (95 ng/ml); 9) Beta-caryophyllene (100 ng/mL)+CBD (95 ng/mL)+Tributyrin (10 μM); 10) Vitamin A, or “VitA” (1.2 μM)+Beta-caryophyllene (100 ng/mL).
(§3) As with single ingredients, two different treatment experiments occurred with these combos including: Cells treated with compounds 1-5 above for 3 hours. Cells treated with compounds 1-5 above for 12 hours with a concomitant TNF-alpha treatment (15 ng/ml)
(§4) All cells were grown to confluence using cell-specific media and additives.
(§5) The day of treatment, culture media was spiked with the appropriate ingredients (these are termed “treatment media”)
(§6) After either the 3-h or 12-h treatments described above, treatment media was removed, cells were rinsed with 1× phosphate-buffered saline, and general cell lysis buffer (Tris-based with detergent) was used to lyse cells
(§7) Cells were scraped off the plate with a rubber policeman in the lysis buffer, the slurry was placed in 1.7 mL tubes, and lysates were frozen at −80° C. until the respective assays discussed below.
(§8) There are n=5-6 replicates per treatment condition.
(§9) PPARγ DNA binding activity was assessed using a plate that was pre-coated with a PPAR-gamma consensus binding sequence. Thereafter, antibody-based methods were used to assess the amount of bound transcription factor, and data were normalized to total protein loaded in the assay.

phosphorylated p65/NF-κB = test: Inflammatory signaling (phosphorylated NF-kB) by Western blotting, C2C12 muscle cells; conditions: vs DMSO control
Method: as §1, §2, §3, §4, §5, §6, §7, §8
SOD2, SOD1, phosphorylated p65/NF-κB, pro-caspase 1, and NLRP3 were assayed using Western blotting methods.

SOD2 = SOD2 protein levels by Western blotting, C2C12 muscle cells; conditions: 3 h and 12 h with TNF-alpha, treatment not told apart in text, vs DMSO control
Method: as §1, §2, §3, §4
(§10) The day of treatment, culture media was spiked with the appropriate ingredients (these are termed “treatment media”) […]

PPARγ [2] = target: T1, PPARγ; test: PPARγ DNA binding activity, C2C12 muscle cells; conditions: vs DMSO control
Method: as §1, §2, §3, §4, §5, §6, §7, §8, §9

AML-12 liver cells [3] = test: Cellular glucose levels, colorimetric glucose oxidase assay, AML-12 liver cells; conditions: 12 h treatment with TNF-alpha (15 ng/mL), vs DMSO control
Method: as §1, §2, §3, §4, §10

[4] = tested on: C2C12 myotubes (muscle cells); test: Cellular glucose levels, colorimetric glucose oxidase assay, C2C12 muscle cells; conditions: 12 h treatment with TNF-alpha (15 ng/mL), vs DMSO control
Method: as §1, §2, §3, §4, §10

AML-12 liver cells [5] = test: Cellular antioxidant (AOx) capacity, Cu2+ ion conversion assay, AML-12 liver cells; conditions: 3 h treatment, vs DMSO control, CBD 95 ng/ml, VitA 1.2 μM, tributyrin 10 μM, beta-caryophyllene 100 ng/ml
Method: as §1, §2, §3, §4, §10
(§11) Total antioxidant capacity was assessed using a Cu2+ ion is conversion assay.

[6] = tested on: C2C12 myotubes (muscle cells); test: Cellular antioxidant (AOx) capacity, Cu2+ ion conversion assay, C2C12 muscle cells; conditions: vs DMSO control
Method: as §1, §2, §3, §4, §10, §11

[7] = 12 h treatment with TNF-alpha (15 ng/mL)

Compound	PPARγ DNA binding activity vs control (PPARγ [1]; 3 h treatment)	NF-kB phosphorylation vs control (phosphorylated p65/NF-κB; [7])	SOD2 protein levels vs control (SOD2)	PPARγ DNA binding activity vs control (PPARγ [1]; [7])	PPARγ DNA binding activity vs control (PPARγ [2]; [7])	Cellular glucose levels vs control (AML-12 liver cells [3])	Cellular glucose levels vs control [4]	Cellular AOx capacity vs control (AML-12 liver cells [5])	Cellular AOx capacity vs control ([6]; 3 h treatment, CBD 95 ng/ml, VitA 1.2 μM, tributyrin 10 μM, beta-caryophyllene 100 ng/ml)	PPARγ DNA binding activity vs control (PPARγ [2]; 3 h treatment)	Cellular AOx capacity vs control [6, 7]	NF-kB phosphorylation vs control (phosphorylated p65/NF-κB; 3 h treatment)
C=C1CC/C=C(\C)CC[C@@H]2[C@@H]1CC2(C)C [BCP, beta-caryophyllene]	significance values greater than control group	significant values in reducing NF-kB phosphorylation										
CCCC(=O)OCC(COC(=O)CCC)OC(=O)CCC [tributyrin, Tributyrin]	significance values greater than control group	significant values in reducing NF-kB phosphorylation	significance value less the control	significance value greater than control group	values of greater significance than the control	increases cell glucose	increases cell glucose					
CCCCCCCCCCCCCCCC(=O)OC/C=C(C)/C=C/C=C(C)/C=C/C1=C(C)CCCC1(C)C [vitamin A, Retinyl palmitate]	significance values greater than control group							showed an antioxidant capacity	expressed significance values	significance value greater than control group		
cannabidiol [CBD]			significance value less the control		values of greater significance than the control			expressed results with significance value			expressed significance value	the only one with significant value among the ingredients
